{
  "source": "patent US20180049996A1",
  "about": "“THERAPEUTIC AGENT FOR CHRONIC RESPIRATORY DISEASE AND COMPOSITION FOR INHIBITING CARDIAC FIBROSIS” (NIPPON HYPOX LABORATORIES INCORPORATED, priority 2015, published 2018)",
  "key": {"[1]": {"system": "Reactive oxygen species (ROS)", "assay": "Reactive oxygen species (ROS) in BAL cell fluid, COPD model", "format": "in vivo, C57BL/6N mice", "conditions": "HTHQ 10 and 20 mg/kg/day oral; tobacco smoke 10 days + LPS; compared to COPD group", "protocol": "6 week old male SPF C57BL/6N mice, 20 to 25 g of body weight, were purchased from CORETEC INC. (South Korea).\nThe tests were conducted as follows. The mice in the COPD (chronic obstructive pulmonary disease) model group of the test groups were exposed to tobacco smoke for 1 hour per day (8 cigarettes/day) for 10 days and LPS (5 μg/50 μL/mouse) was intranasally administered to the mice on day 8 after the start of the tests. […]\nThe mice in the test groups were euthanized 72 hours after the LPS administration and the mice in the normal control group were euthanized on day 11 after the start of the tests by intraperitoneal injection of pentobarbital (Hanrimu pharmaceutical, South Korea) at 50 mg/kg and then the bronchi were excised. […] After preparing slide samples from 100 μL of BAL cell fluid using Cytospin (4° C., 1000 rpm×5 min), the cell numbers of inflammatory cells (neutrophil, macrophages) present in the BAL fluid were counted using a Diff-Quik stain kit.\nReactive oxygen species (ROS) amounts in BAL cell fluid were measured. […] Reactive oxygen species (ROS) amounts within cells were measured at an excitation wavelength of 485 nm and a fluorescence wavelength of 530 nm using a fluorescence plate analyzer (a product from PerkinElmer, Inc.)."}, "[2]": {"system": "allergic asthma model of mice caused by ovalbumin sensitization", "assay": "BAL inflammatory cell numbers, allergic asthma model caused by ovalbumin sensitization", "format": "in vivo, BALB/c female mice", "conditions": "HTHQ 20 and 40 mg/kg/day oral, days 18 to 23; day 25; compared to OVA group", "protocol": "The efficacy of the hydroquinone derivative represented by the general formula (1) described above of the present invention on asthma was studied using an allergic asthma model of mice caused by ovalbumin sensitization.\n6 week old BALB/c female mice were purchased and the mice were divided into 5 groups with 5 animals per group shown in Table 3 below after habituation breeding of about 2 weeks.\nThe test was conducted on the schedule of sensitization, causing diseases and administration of test materials shown in FIG. 12. “IP” in FIG. 12 refers to ovalbumin sensitization treatment by the intraperitoneal administration of ovalbumin/aluminum hydroxide, and “IH” refers to inhalation exposure treatment of ovalbumin, and “PO” refers to the administration of the test materials. […]\nAll mice were euthanized by intraperitoneal injection of pentobarbital (Hanrimu pharmaceutical, South Korea) at 50 mg/kg and the bronchi were excised on day 25 of the test. […] After preparing slide samples from 100 μL of BAL cell fluid using Cytospin (4° C., 1000 rpm×5 min), the cell numbers of inflammatory cells (eosinophils, macrophages, lymphocytes and neutrophils) present in the BAL fluid were counted using a Diff-Quik stain kit."}},
  "data": [
    {"compound": "CCCCCCOc1cc(C)c(O)c(C)c1C", "note": "[HTHQ, 2,3,5-trimethylhydroquinone-1-hexyl ether]", "values": [
      {"measurement": "amount of reactive oxygen species (ROS) in BAL cell fluid", "setting": "[1]", "result": "effectively reduced"},
      {"measurement": "inflammatory cell numbers in BAL fluid (eosinophils, macrophages, total)", "setting": "[2]", "result": "significantly reduced in an HTHQ dose-dependent manner"}
    ]}
  ]
}
